Assay results published in patent US20260374782A1, “NEW COMPOUNDS, PROCESSES FOR PREPARING THE SAME AND THEIR USE AS DRUGS” (B&A ONCOMEDICAL, priority 2022, published 2026).
Where two headings read alike, the source gives them in different places.

Target: T1, NKCC1 (Homo sapiens, UniProt P55011)
T1 construct: endogenous in cells; host or cells: native HEK293 cells
T1 sequence (P55011 1-1212): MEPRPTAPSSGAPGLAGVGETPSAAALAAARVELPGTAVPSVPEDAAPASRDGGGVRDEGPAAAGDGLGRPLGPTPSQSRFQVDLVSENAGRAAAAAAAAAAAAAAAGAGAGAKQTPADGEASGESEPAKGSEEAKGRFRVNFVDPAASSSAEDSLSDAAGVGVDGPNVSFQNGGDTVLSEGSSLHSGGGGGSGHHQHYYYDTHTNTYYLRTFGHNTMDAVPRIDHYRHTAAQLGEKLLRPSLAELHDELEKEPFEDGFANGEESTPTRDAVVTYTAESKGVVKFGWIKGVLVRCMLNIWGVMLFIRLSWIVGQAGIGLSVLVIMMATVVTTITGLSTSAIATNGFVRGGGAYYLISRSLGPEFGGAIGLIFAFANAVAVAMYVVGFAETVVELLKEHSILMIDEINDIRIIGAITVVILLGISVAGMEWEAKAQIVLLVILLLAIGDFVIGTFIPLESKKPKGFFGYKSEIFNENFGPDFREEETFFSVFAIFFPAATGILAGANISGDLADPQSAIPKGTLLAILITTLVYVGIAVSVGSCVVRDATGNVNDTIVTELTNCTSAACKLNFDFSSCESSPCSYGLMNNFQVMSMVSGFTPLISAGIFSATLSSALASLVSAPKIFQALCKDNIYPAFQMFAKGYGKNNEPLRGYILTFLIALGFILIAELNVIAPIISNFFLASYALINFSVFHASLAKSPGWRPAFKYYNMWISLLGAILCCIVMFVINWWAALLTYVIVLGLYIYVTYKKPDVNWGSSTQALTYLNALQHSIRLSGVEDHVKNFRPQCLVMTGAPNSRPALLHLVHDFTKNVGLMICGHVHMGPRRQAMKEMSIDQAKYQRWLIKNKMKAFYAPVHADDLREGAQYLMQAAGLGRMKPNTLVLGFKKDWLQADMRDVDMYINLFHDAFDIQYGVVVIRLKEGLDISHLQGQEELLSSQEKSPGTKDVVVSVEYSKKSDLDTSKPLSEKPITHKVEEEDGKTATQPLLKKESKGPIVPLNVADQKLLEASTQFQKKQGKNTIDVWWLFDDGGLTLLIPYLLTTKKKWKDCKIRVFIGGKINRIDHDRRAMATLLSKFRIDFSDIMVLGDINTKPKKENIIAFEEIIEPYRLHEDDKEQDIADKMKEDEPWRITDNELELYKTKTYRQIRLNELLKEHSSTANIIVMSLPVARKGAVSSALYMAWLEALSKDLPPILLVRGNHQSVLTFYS
Assay: NKCC1-mediated K+ influx (83Rb tracer uptake) in native HEK293 cells, hypertonic saline, 100 μM ouabain
Assay type: cell-based
Excerpt: The compounds of the invention have been tested for evaluating their potency in inhibiting the NKCC1 channel. The test used is a cellular assay expressing the NKCC1 channel: HEK293 cells are human cells derived from embryonic kidney. The inhibitory activity of the compounds has been evaluated in measuring the modification of the potassium flux at 2 concentrations, as described hereafter in the biological protocol.
HEK293 cells are human cells derived from embryonic kidney. They express at their plasma membranes proteins that transport potassium (K^+). Among these proteins is the Na—K-2Cl cotransporter or NKCC1. This transporter contributes to 40-50% of K^+ influx into the cells. The remaining of K^+ transport is mediated by the Na^+/K^+-ATPase (also known as Na^+ pump or Na^+/K^+ pump), which also contributes some 40-50% of the influx basal flux of 5-10%, which is mainly due to K^+ channels (FIG. 1A). Thus, the HEK293 cell in culture is an ideal model to study the function of NKCC1 and test compounds that inhibits its transport.
The assay to measure NKCC1 function was optimized to obtain the next signal to noise ratio: • a. A slightly hypertonic saline was used to stimulate NKCC1 function. […] By consistent use of this simple manipulation, the NKCC1 signal was enhanced. • b. Ouabain, an inhibitor of the Na^+/K^+ pump, was used at 100 μM. […] A radioactive isotope was used to trace the inward movement of K^+ into the cell (influx). This allowed for highly precise measurements of K^+ influx. Because radioactive isotopes of K^+ had very short half-lives, radioactive isotopes of Rb^+ were used. Rubidium was a monovalent cation which was readily transporter at the K^+ binding site by many transporters and channels. Rb^+ was a congener of K^+, being transported undistinguishably from K^+. ^83Rb (half-life of 83 days) was used since ^86Rb (half-life of 19.6 days) is no longer commercially available. The ^83Rb isotope was used as a tracer, i.e. at a very low amounts to trace the movement of K^+.
K^+ influx measured in native HEK293 was in the range of 7000-9000 pmoles K^+ per mg protein per min. In the presence of 20 μM Ref 1, the flux was reduced to 600-900 pmoles K^+ per mg protein per min. Thus, there was a very solid dynamic range. In each experiment, the flux without Ref 1 was set at 1000 (equivalent to 100.0%) and the flux with 20 μM bumetanide was set at 0 (equivalent to 0%).
For the flux experiments, 35-mm culture dishes were coated with 0.1 mg/mL poly-L-lysine and placed in large 20×20 [square] dishes. For convenience, the poly-L-lysine was placed in the dishes the day before the experiment. Before plating the cells, the poly-L-lysine was aspirated, and each dish washed twice with 1 mL sterile water. Cells from 3 confluent 10-cm dishes were detached with trypsin and resuspended into 49 mL complete medium. Cells (2 mL/35-mm dish) were plated in 24 dishes and allowed to attach for at least 2 hours prior to the flux. This setup allowed the measurement of 8 conditions in triplicates. For the flux, culture medium was aspirated and replaced with 1 mL saline for a preincubation period of 15 min. The saline was aspirated and replaced with 1 mL identical saline containing 0.25 μCi/mL 83Rb for 15 min. Following the uptake period, the radioactive solution was aspirated, and the cells washed 3 times with ice-cold saline. Cells were then lyzed with 500 μl 0.25N NaOH for 1 hour, neutralized with 250 μL glacial acetic acid and 300 μL and 30 μL aliquots were used for μ-scintillation counting and protein assays, respectively. Two 5 μL of each flux solution was used to determine cpm and relate those cpm to nmoles K^+. Potassium influx was expressed in nmoles K^+ per mg protein per min. Note that within an experiment, groups of 3 dishes were separated 2 min apart for easy handling. Also note that since all dishes were plated with a homogeneous cell suspension, and all dishes were identical, the protein content was measured from a subset of dishes. […]

[1] = HEK293, no drug = 1000, 20 μM bumetanide = 0, read-out: NKCC1 mediated flux inhibition at 2 μM (%)
[2] = HEK293, no drug = 1000, 20 μM bumetanide = 0, read-out: NKCC1 mediated flux inhibition at 20 μM (%)

| inhibition at 2 µM [1] [%] | inhibition at 20 µM [2] [%] | SMILES | also measured |
| --- | --- | --- | --- |
| – | – | NS(=O)(=O)c1cc(C(=O)O)c(NCc2ccco2)cc1Cl [Ref 2, furosemide, reference compound] | inhibition at 2 µM (native HEK293, read-out: Percent inhibition of drugs on NKCC1, 2 uM): 32%; inhibition at 20 µM (native HEK293, read-out: Percent inhibition of drugs on NKCC1, 20 uM): 77% |
| – | – | C[C@@H]1O[C@@H](O[C@H]2C[C@@H](O)[C@]3(CO)[C@H]4[C@H](O)C[C@]5(C)[C@@H](C6=CC(=O)OC6)CC[C@]5(O)[C@@H]4CC[C@]3(O)C2)[C@H](O)[C@H](O)[C@H]1O [Ouabain, ouabain, reference compound] | effect on flux not mediated by the cotransporter (100 μM, inhibitor of the Na+/K+ pump): greatly reduced the flux not mediated by the cotransporter |
| 30 to 50 | ≥ 75 | CCCCNc1cc(C(=O)O)cc(S(=N)(=O)NCC2CCN(C(C)=O)CC2)c1Oc1ccccc1 (stereo not drawn) [Compound 97, 3-[[(1-acetyl-4-piperidyl)methylamino]sulfonimidoyl]-5-(butylamino)-4-phenoxy-benzoic acid] | – |
| – | 10 to 30 | CCCCNc1cc(C(=O)NCC(F)(F)F)cc(S(=N)(=O)Nc2ccccc2)c1Oc1ccccc1 (stereo not drawn) [Compound 111, 3-(anilinosulfonimidoyl)-5-(butylamino)-N-(2,2,2-trifluoroethyl)-4-phenoxy-benzamide] | – |
| 10 to 30 | 30 to 50 | CCCCNc1cc(C(=O)OC)cc(S(=N)(=O)Nc2ccn(C)n2)c1Oc1ccccc1 (stereo not drawn) [Compound 21, methyl 3-(butylamino)-5-[[(1-methylpyrazol-3-yl)amino]sulfonimidoyl]-4-phenoxy-benzoate] | – |
| – | 10 to 30 | CCCCNc1cc(C(=O)NCC2CC2)cc(S(=N)(=O)Nc2ccccc2)c1Oc1ccccc1 (stereo not drawn) [Compound 107, 3-(anilinosulfonimidoyl)-5-(butylamino)-N-(cyclopropylmethyl)-4-phenoxy-benzamide] | – |
| – | 10 to 30 | CCCCNc1cc(C(=O)OC)cc(S(=N)(=O)NC2CC2)c1Oc1ccccc1 (stereo not drawn) [Compound 10, methyl 3-(butylamino)-5-[(cyclopropylamino)sulfonimidoyl]-4-phenoxy-benzoate] | – |
| 30 to 50 | ≥ 75 | CCCCNc1cc(C(=O)O)cc(S(=N)(=O)Nc2ccccc2Cl)c1Oc1ccccc1 (stereo not drawn) [Compound 77, 3-(butylamino)-5-[(2-chloroanilino)sulfonimidoyl]-4-phenoxy-benzoic acid] | – |
| 50 to 75 | ≥ 75 | CCCCNc1cc(C(=O)O)cc(S(=N)(=O)Nc2ccc(Cl)cc2)c1Oc1ccccc1 (stereo not drawn) [Compound 78, 3-(butylamino)-5-[(4-chloroanilino)sulfonimidoyl]-4-phenoxy-benzoic acid] | – |
| – | 10 to 30 | CCCCNc1cc(C(=O)OC)cc(S(=N)(=O)NCCc2nccs2)c1Oc1ccccc1 (stereo not drawn) [Compound 39, methyl 3-(butylamino)-4-phenoxy-5-[(2-thiazol-2-ylethylamino)sulfonimidoyl]benzoate] | – |
| 10 to 30 | 10 to 30 | CCCCNc1cc(C(=O)O)cc(S(=O)(=Nc2ccccc2)N2CCCCCC2)c1Oc1ccccc1 (stereo not drawn) [Compound 101, 3-[S-(azepan-1-yl)-N-phenyl-sulfonimidoyl]-5-(butylamino)-4-phenoxy-benzoic acid] | – |
| 30 to 50 | 30 to 50 | CCCCNc1cc(C(=O)OC)cc(S(=N)(=O)NCC2CCN(C)CC2)c1Oc1ccccc1 (stereo not drawn) [Compound 50, methyl 3-(butylamino)-5-[[(1-methyl-4-piperidyl)methylamino]sulfonimidoyl]-4-phenoxy-benzoate] | – |
| 30 to 50 | 30 to 50 | CCCCNc1cc(C(=O)O)cc(S(=N)(=O)NC2CN3CCC2CC3)c1Oc1ccccc1 (stereo not drawn) [Compound 96, 3-(butylamino)-4-phenoxy-5-[(quinuclidin-3-ylamino)sulfonimidoyl]benzoic acid] | – |
| – | 10 to 30 | CCCCNc1cc(C(=O)OC)cc(S(=N)(=O)NCc2nccs2)c1Oc1ccccc1 (stereo not drawn) [Compound 38, methyl 3-(butylamino)-4-phenoxy-5-[(thiazol-2-ylmethylamino)sulfonimidoyl]benzoate] | – |
| 30 to 50 | – | CCCCNc1cc(C(=O)NC)cc(S(=N)(=O)NCc2cccc(Cl)c2)c1Oc1ccccc1 (stereo not drawn) [Compound 116, 3-(butylamino)-5-[[(3-chlorophenyl)methylamino]sulfonimidoyl]-N-methyl-4-phenoxy-benzamide] | – |
| 30 to 50 | 10 to 30 | CN=S(C)(=O)c1cc(C(=O)OC)cc(N)c1Oc1ccccc1 (stereo not drawn) [Compound 132, methyl 3-amino-5-(N,S-dimethylsulfonimidoyl)-4-phenoxy-benzoate] | – |
| 30 to 50 | 10 to 30 | CCCCNc1cc(C(=O)OC)cc(S(=N)(=O)Nc2cccnc2)c1Oc1ccccc1 (stereo not drawn) [Compound 16, methyl 3-(butylamino)-4-phenoxy-5-[(3-pyridylamino)sulfonimidoyl]benzoate] | – |
| 10 to 30 | 30 to 50 | CCCCNc1cc(C(=O)OC)cc(S(=N)(=O)NCC2CCCCC2)c1Oc1ccccc1 (stereo not drawn) [Compound 12, methyl 3-(butylamino)-5-[(cyclohexylmethylamino)sulfonimidoyl]-4-phenoxy-benzoate] | – |
| 30 to 50 | 10 to 30 | CCCCNc1cc(C(=O)NOC)cc(S(=N)(=O)NCc2cccc(Cl)c2)c1Oc1ccccc1 (stereo not drawn) [Compound 117, 3-(butylamino)-5-[[(3-chlorophenyl)methylamino]sulfonimidoyl]-N-methoxy-4-phenoxy-benzamide] | – |
| 30 to 50 | 10 to 30 | CCCCNc1cc(C(=O)N(C)C)cc(S(=N)(=O)Nc2ccccc2)c1Oc1ccccc1 (stereo not drawn) [Compound 105, 3-(anilinosulfonimidoyl)-5-(butylamino)-N,N-dimethyl-4-phenoxy-benzamide] | – |
